From ChEMBL document CHEMBL3425465, “Synthesis, antimalarial and antitubercular activities of meridianin derivatives” (Eur J Med Chem, 2015)
Converted amounts (≈) assume the structure as drawn.

Assays:
KB = assay: Cytotoxicity against human KB cells assessed as cell growth inhibition after 48 hrs by neutral red assay; type: cell-based
[1] = Retention time of the compound by HPLC analysis; type: physicochemical
LLC-PK1 = assay: Cytotoxicity against pig LLC-PK1 cells assessed as cell growth inhibition after 48 hrs by neutral red assay; type: cell-based; conditions: Sus scrofa, LLC-PK1, 48 h
[2] = Selectivity index, ratio of IC50 for African green monkey VERO cells to IC50 for Plasmodium falciparum D6
BT-549 = assay: Cytotoxicity against human BT549 cells assessed as cell growth inhibition after 48 hrs by neutral red assay; type: cell-based; conditions: BT-549, 48 h
SK-OV-3 = assay: Cytotoxicity against human SKOV3 cells assessed as cell growth inhibition after 48 hrs by neutral red assay; type: cell-based; conditions: SK-OV-3, 48 h
SK-MEL = assay: Cytotoxicity against human SK-MEL cells assessed as cell growth inhibition after 48 hrs by neutral red assay; type: cell-based
Plasmodium falciparum [3] = assay: Antiplasmodial activity against Plasmodium falciparum D6 infected in human RBC assessed as parasite growth inhibition measured as LDH activity after 72 hrs by plate reader analysis; type: functional, organism-based
Vero = assay: Cytotoxicity against African green monkey Vero cells assessed as cell growth inhibition after 48 hrs by neutral red assay; type: cell-based; conditions: Chlorocebus sabaeus
[4] = Selectivity index, ratio of IC50 for African green monkey VERO cells to IC50 for Plasmodium falciparum W2
[5] = Selectivity index, ratio of IC50 for pig LLC-PK1 cells to IC50 for Plasmodium falciparum W2
Plasmodium falciparum [6] = assay: Antiplasmodial activity against Plasmodium falciparum W2 infected in human RBC assessed as parasite growth inhibition measured as LDH activity after 72 hrs by plate reader analysis; type: functional, organism-based
[7] = Selectivity index, ratio of IC50 for pig LLC-PK1 cells to IC50 for Plasmodium falciparum D6
[8] = test system: Mycobacterium tuberculosis; assay: Antitubercular activity against Mycobacterium tuberculosis H37Rv assessed as […] inhibition after 7 days by broth microdilution assay; type: functional; conditions: 168 h
[9] = Plasmodium falciparum, D6, 72 h, read-out: IC50
[10] = Plasmodium falciparum, D6, 72 h, read-out: pIC50 (converted)
[11] = Plasmodium falciparum, W2, 72 h, read-out: IC50
[12] = Plasmodium falciparum, W2, 72 h, read-out: pIC50 (converted)

| SMILES | IC50 (KB) [µM] | Retention_time [1] [min] | IC50 (LLC-PK1) [µM] | Ratio IC50 [2] | IC50 (BT-549) [µM] | IC50 (SK-OV-3) [µM] | IC50 (SK-MEL) [µM] | IC50 (Plasmodium falciparum [3]; [9]) [µM] | IC50 (Plasmodium falciparum [3]; [10]) [µM] | IC50 (Vero) [µM] | Ratio IC50 [4] | Ratio IC50 [5] | IC50 (Plasmodium falciparum [6]; [11]) [µM] | IC50 (Plasmodium falciparum [6]; [12]) [µM] | Ratio IC50 [7] | MIC90 [8] [µM] | IC50 (Plasmodium falciparum [3]) | IC50 (Plasmodium falciparum [6]) |
| --- | --- | --- | --- | --- | --- | --- | --- | --- | --- | --- | --- | --- | --- | --- | --- | --- | --- | --- |
| Nc1nccc(-c2cn(S(=O)(=O)c3ccc([N+](=O)[O-])cc3)c3ccc(Br)cc23)n1 | > 52 | 7.78 | > 52 | >10.8 | > 52 | > 52 | > 52 | 4.86 | 4.86 | > 52 | >8.2 | >8.2 | 6.39 | 6.38 | >10.8 |  |  |  |
| Nc1nccc(-c2cn(S(=O)(=O)c3ccc(OC(F)(F)F)cc3)c3ccc(Br)cc23)n1 |  | 9.54 |  |  |  |  |  |  |  |  |  |  |  |  |  | 62.5 (≈ 32.1 µg/mL) | Not Active | Not Active |
| Cc1ccsc1C(=O)n1cc(-c2ccnc(N)n2)c2ccccc21 |  | 8.48 |  |  |  |  |  |  |  |  |  |  |  |  |  | 192 (≈ 64.1 µg/mL) |  |  |
| Nc1nccc(-c2c[nH]c3ccccc23)n1 |  |  |  | >12.3 |  |  |  |  |  |  | >26.8 | >24.1 |  |  | >11.1 | 305 (≈ 64.1 µg/mL) |  |  |
| N#Cc1ccc(S(=O)(=O)n2cc(-c3ccnc(N)n3)c3ccccc32)cc1 | > 66 | 7.02 | > 66 | >6 | > 66 | > 66 | > 66 | 11 | 11 | > 66 | >7.4 | >7.4 | 8.98 | 8.97 | >6 |  |  |  |
| CC(C)(C)c1ccc(S(=O)(=O)n2cc(-c3ccnc(N)n3)c3cc(Br)ccc32)cc1 | > 51 | 13.2 | > 51 | >6.1 | > 51 | > 51 | > 51 | 8.36 | 8.36 | > 51 | >5.9 | >5.9 | 8.74 | 8.75 | >6.1 |  |  |  |
| CC(=O)Nc1ccc(S(=O)(=O)n2cc(-c3ccnc(N)n3)c3cc(Br)ccc32)cc1 | > 51 | 6.95 | > 51 | >5.5 | > 51 | > 51 | > 51 | 9.33 | 9.33 | > 51 | >5.6 | >5.6 | 9.14 | 9.14 | >5.5 |  |  |  |
| Nc1nccc(-c2cn(S(=O)(=O)c3cccc(C(F)(F)F)c3)c3ccc(Br)cc23)n1 | > 50 | 8.61 | > 50 | >5.4 | > 50 | > 50 | > 50 | 9.3 | 9.29 | > 50 | >9.4 | >9.4 | 5.34 | 5.35 | >5.4 |  |  |  |
| COc1cccc2c1C(=O)c1c(O)c3c(c(O)c1C2=O)C[C@@](O)(C(=O)CO)C[C@@H]3O[C@H]1C[C@H](N)[C@H](O)[C@H](C)O1 [DOXORUBICIN] |  |  |  |  | 1.6 |  |  |  |  | > 9 |  |  |  |  |  |  |  |  |
| Cc1noc(C)c1Cn1cc(-c2ccnc(N)n2)c2ccccc21 |  |  |  |  |  |  |  |  |  |  |  |  |  |  |  | 201 (≈ 64.1 µg/mL) |  |  |
| Nc1nccc(-c2c[nH]c3ccc(Br)cc23)n1 [MERIDIANIN C] |  |  |  | >6 |  |  |  |  |  |  | >7.4 | >7.4 |  |  | >6 | 111 (≈ 32.1 µg/mL) |  |  |
| CN1CCN(C(=O)n2cc(-c3ccnc(N)n3)c3cc(Br)ccc32)CC1 |  |  |  |  |  |  |  |  |  |  |  |  |  |  |  | 155 (≈ 64.2 µg/mL) |  |  |
| Nc1nccc(-c2cn(S(=O)(=O)c3cccc(C(F)(F)F)c3)c3ccccc23)n1 |  | 8.34 |  |  |  |  |  |  |  |  |  |  |  |  |  | 153 (≈ 64.1 µg/mL) | Not Active | Not Active |
